We go through eleven compounds from ChEMBL document CHEMBL1201862, “PubChem BioAssay data set” (2004).

Some test systems named below: NCI-H460; BT-549; K562; HL-60; CCRF-CEM; Hs-578T; TK-10; NCI-H226; UACC-257; MCF7; SK-OV-3; SNB-19; RPMI-8226; SK-MEL-5; U-251; NCI-H23; HCT-116; SF-268; COLO 205; NCI-H522.
Test in all cases: NCI tumour cell line growth inhibition, 48 h

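These data come from cells grown in 96-well plates and exposed to compound for 48 hours at five concentrations. GI50 marks 50% less growth.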 The source made the active and inactive calls. No stated cut-off is given here; in the data, active = GI50 up to about 1.1 µM and inactive = higher.

Regarding `CC(=O)OC1COC(Nn2c(=O)[nH]c3ccccc3c2=O)C(OC(C)=O)C1OC(C)=O` (stereo not drawn), the GI50 with NCI-H460 is > 100 µM (inactive); in the assay on BT-549, > 100 µM (inactive); in the assay on K562, > 100 µM (inactive); in the assay on HL-60, > 100 µM (inactive); in the assay with CCRF-CEM, > 100 µM (inactive); in the assay with Hs-578T, 13.6 µM (inactive). Further, the GI50 in the assay with TK-10 was > 100 µM (inactive); in the assay with NCI-H226, 51.9 µM (inactive); in the assay with UACC-257, > 100 µM (inactive); in the assay with MCF7 it was > 100 µM (inactive); with SK-OV-3, > 100 µM (inactive); in the assay with SNB-19, > 100 µM (inactive). Also, the GI50 in the assay on RPMI-8226, with SK-MEL-5, in the assay on U-251, with NCI-H23, in the assay with HCT-116 and in the assay with SF-268 was > 100 µM (inactive) throughout. Further, the GI50 in the assay on COLO 205 is > 100 µM (inactive).
Turning to `CCC(c1ccc2cc(O)ccc2c1)C(C)(C)C(=O)O` (stereo not drawn), the GI50 in the assay with NCI-H460, in the assay with BT-549, in the assay with K562, in the assay with NCI-H522, in the assay on Hs-578T and with TK-10 was > 100 µM (inactive) each time. Also, the GI50 with NCI-H226, in the assay with UACC-257, in the assay with MCF7, with SK-OV-3, in the assay on SNB-19 and in the assay on RPMI-8226 was > 100 µM (inactive) each time. Moreover, the GI50 with SK-MEL-5, in the assay on U-251, in the assay with NCI-H23, in the assay on HCT-116, with SF-268 and with COLO 205 was > 100 µM (inactive) in each case.
For `COc1ccc2c(=O)c3ccoc3[nH]c2c1`, the GI50 in the assay on NCI-H460 was > 100 µM (inactive); in the assay with BT-549, > 100 µM (inactive); in the assay with K562, > 100 µM (inactive); with HL-60, > 100 µM (inactive); in the assay with CCRF-CEM it was > 100 µM (inactive); with Hs-578T it was 80.9 µM (inactive). The GI50 in the assay with TK-10, in the assay with NCI-H226, in the assay with UACC-257, with MCF7, in the assay with SK-OV-3 and in the assay on SNB-19 was > 100 µM (inactive) in each case. Further, the GI50 with RPMI-8226, with SK-MEL-5, with U-251, in the assay with NCI-H23, with HCT-116 and in the assay with SF-268 was > 100 µM (inactive) throughout. Moreover, the GI50 with COLO 205 was > 100 µM (inactive).
`COc1cc2c(cc1OC)C(C)N(C)c1c-2c(OC(C)=O)cc2cc(OC)c(OC)cc12` (stereo not drawn): the GI50 is 6.38 µM (inactive) in the assay with NCI-H460; 18.2 µM (inactive) in the assay on BT-549; 23.4 µM (inactive) in the assay on K562; 31.6 µM (inactive) in the assay on CCRF-CEM; 3.34 µM (inactive) in the assay with NCI-H522; 19.1 µM (inactive) in the assay with Hs-578T. In addition, the GI50 is 23.2 µM (inactive) in the assay with TK-10; 2.33 µM (inactive) with NCI-H226; 11.1 µM (inactive) in the assay with UACC-257; 12.5 µM (inactive) in the assay on MCF7; 27.7 µM (inactive) with SK-OV-3; 27.5 µM (inactive) in the assay with SNB-19. The GI50 was 8.69 µM (inactive) with RPMI-8226; 4.67 µM (inactive) with SK-MEL-5; 21.7 µM (inactive) in the assay with U-251; 15.4 µM (inactive) with NCI-H23; 13.9 µM (inactive) with HCT-116; 26.9 µM (inactive) with SF-268. For the same compound, the GI50 in the assay on COLO 205 is 6.43 µM (inactive).
On to `COC(=O)C#Cc1cccc(OC)c1OC`, for which the GI50 in the assay on NCI-H460 is 48.1 µM (inactive); with BT-549, 62.2 µM (inactive); in the assay with K562, 21.1 µM (inactive); in the assay with HL-60 it was 33 µM (inactive); with CCRF-CEM, 26.6 µM (inactive); in the assay with Hs-578T, 37.3 µM (inactive). The GI50 was 41.8 µM (inactive) in the assay on TK-10; 43.3 µM (inactive) in the assay with NCI-H226; > 100 µM (inactive) in the assay on UACC-257; 19.7 µM (inactive) with MCF7; 48 µM (inactive) in the assay on SK-OV-3; 60.3 µM (inactive) with SNB-19. Besides, the GI50 in the assay with RPMI-8226 was 30.1 µM (inactive); with SK-MEL-5, 29.6 µM (inactive); in the assay with U-251, 31.8 µM (inactive); in the assay on NCI-H23 it was 41.3 µM (inactive); in the assay on HCT-116, 33.6 µM (inactive); in the assay on COLO 205 it was 27 µM (inactive).
On to `Cc1nc2c(=O)n(-c3ccccc3)c3ccccc3c2o1`, for which the GI50 in the assay with NCI-H460, with BT-549, with K562, in the assay with HL-60, in the assay with CCRF-CEM and in the assay with Hs-578T was > 100 µM (inactive) in each case. Also, the GI50 with TK-10, in the assay with NCI-H226, in the assay with UACC-257, in the assay with MCF7, in the assay on SK-OV-3 and with SNB-19 was > 100 µM (inactive) in each case. Further, the GI50 in the assay with RPMI-8226, with SK-MEL-5, in the assay with U-251, in the assay with NCI-H23, in the assay on HCT-116 and with SF-268 was > 100 µM (inactive) throughout. The GI50 with COLO 205 is > 100 µM (inactive).
Turning to `Nc1ccn([C@@H]2C=C(CO)[C@@H](O)[C@H]2O)c(=O)n1`, the GI50 in the assay on NCI-H460 is 0.0593 µM (active); in the assay on BT-549, 2.06 µM (inactive); in the assay on K562 it was 0.0681 µM (active); with HL-60, 0.05 µM (active); with CCRF-CEM it was 0.0617 µM (active); in the assay with NCI-H522, 0.6 µM (active). Besides, the GI50 in the assay on Hs-578T was 2.24 µM (inactive); in the assay on TK-10, 1.05 µM (active); with NCI-H226 it was 5.53 µM (inactive); with MCF7, 0.05 µM (active); in the assay on SK-OV-3, 0.248 µM (active); in the assay with SNB-19, 0.244 µM (active). The GI50 is 1.06 µM (active) in the assay with SK-MEL-5; 0.321 µM (active) in the assay with U-251; 0.169 µM (active) in the assay on NCI-H23; 0.05 µM (active) in the assay on HCT-116; 0.269 µM (active) with SF-268; 0.198 µM (active) in the assay with COLO 205.
For the compound `O=C1Nc2ccc(Br)cc2/C1=N/NC(=S)Nc1ccc([N+](=O)[O-])cc1`, the GI50 in the assay on NCI-H460 is 5.47 µM (inactive); in the assay with BT-549, 2.28 µM (inactive); with K562, 9.48 µM (inactive); with HL-60, 1.75 µM (inactive); with NCI-H522, 9.79 µM (inactive); in the assay with Hs-578T it was 14.2 µM (inactive). Moreover, the GI50 with TK-10 was 14.5 µM (inactive); in the assay with NCI-H226 it was 15.9 µM (inactive); in the assay with UACC-257 it was 14.4 µM (inactive); in the assay with MCF7 it was 7.13 µM (inactive); with SK-OV-3, 12.7 µM (inactive); in the assay with SK-MEL-5, 7.74 µM (inactive). Besides, the GI50 is 7.13 µM (inactive) with U-251; 2.55 µM (inactive) with NCI-H23; 5.35 µM (inactive) with HCT-116; 9.04 µM (inactive) with SF-268; 21.7 µM (inactive) with COLO 205.
For the compound `O=C1C(Cl)=C(NCCF)C(=O)c2ncccc21`, the GI50 in the assay on NCI-H460 is 1.65 µM (inactive); with BT-549, 1.63 µM (inactive); in the assay on K562, 0.321 µM (active); in the assay on HL-60, 5.11 µM (inactive); in the assay on CCRF-CEM, 0.235 µM (active); with Hs-578T it was 1.83 µM (inactive). The GI50 in the assay on TK-10 is 2.13 µM (inactive); in the assay on NCI-H226, 1.92 µM (inactive); in the assay on UACC-257 it was 1.62 µM (inactive); in the assay with MCF7, 1.72 µM (inactive); in the assay with SK-OV-3, 2.29 µM (inactive); with SNB-19 it was 1.64 µM (inactive). Besides, the GI50 was 7.08 µM (inactive) in the assay on RPMI-8226; 1 µM (active) in the assay with SK-MEL-5; 1.46 µM (inactive) in the assay with U-251; 1.6 µM (inactive) in the assay on NCI-H23; 1.76 µM (inactive) with HCT-116; 2.03 µM (inactive) in the assay with SF-268.
For the compound `COc1ccc(-c2oc3c(CC(=O)O)cccc3c(=O)c2OC)cc1`, the GI50 in the assay with BT-549, in the assay with K562, in the assay with HL-60, in the assay on CCRF-CEM, in the assay with NCI-H522 and in the assay on Hs-578T was > 100 µM (inactive) in each case. Also, the GI50 with TK-10, with NCI-H226, with UACC-257, in the assay on MCF7, in the assay on SK-OV-3 and with SK-MEL-5 was > 100 µM (inactive) in each case. For the same compound, the GI50 in the assay on U-251, in the assay with NCI-H23, with HCT-116, with SF-268 and in the assay on COLO 205 was > 100 µM (inactive) throughout.
On to `CC(=S)NC1C(Oc2ccc3c(C)cc(=O)oc3c2)OC(CO)C(O)C1O` (stereo not drawn), for which the GI50 in the assay on NCI-H460, with BT-549, with K562, in the assay with HL-60, in the assay with CCRF-CEM and in the assay with Hs-578T was > 100 µM (inactive) in each case. Besides, the GI50 in the assay with TK-10, in the assay with NCI-H226, in the assay on UACC-257, with MCF7, in the assay with SK-OV-3 and with SNB-19 was > 100 µM (inactive) in each case. Moreover, the GI50 in the assay on RPMI-8226, in the assay on SK-MEL-5, in the assay on U-251 and with HCT-116 was > 100 µM (inactive) in each case.
